Patent US9555050B2 (BIOGEN MA INC., priority 2012, dated 2017)

The compounds below were run against T1, Human ATX protein (Homo sapiens, UniProt Q13822) (assay: ATX biochemical FRET assay with FS-3 substrate). Settings: FS-3 substrate 2 μM, ATX 1.0 μg/mL, 30 min preincubation, 2 hours at room temperature.
T1 construct: made in house
Excerpt: ATX (Autotaxin) is a 125 KDa glycoprotein with lysophospholipase D (LPLD) activity that generates the bioactive lipid lysophosphatidic acid (LPA) from lysophosphatidylcholine (LPC). The ATX biochemical assay utilizes a FRET (fluorescence resonance energy transfer) technology platform. The fluorescence signal of FRET substrate FS-3 is quenched due to intra-molecular FRET of a fluorophore to a non-fluorescing quencher (Ferguson, C. G., et al., Org Lett. 2006 May 11; 8(10): 2023-2026, which is incorporated by reference in its entirety). ATX catalyzes the hydrolysis of the substrate which separates the dabsyl quencher from the fluorescein reporter, which becomes fluorescent. The reaction is monitored by a SpectraMax M5 (Molecular Devices, Sunnyvale, Calif.) with at excitation wavelength 485 nm and emission wavelength […].
Fatty acid free-BSA (Sigma A8806): 10 mg/mL in H2O, stored at 4° C.
2×ATX assay buffer: 100 mM Tris, 280 mM NaCl, 10 mM KCl, 2 mM CaCl2, 2 mM MgCl2, pH 7.4.
Human ATX protein: expressed and purified in house. Stored at −80° C.
Substrate FS-3 (Echelon, L-2000): 100 μg in 77.74.L H2O (1 mM stock), stored at −20° C.
384-well flat bottom plates—Corning #3575.
Compound dilution—All compounds were provided at 10 mM in 100% DMSO. In the first well, 2 μL of 10 mM compound was added to 78 μL of DMSO (1:40 dilution). In subsequent wells 3-fold dilution (total 10 dilutions) were performed.
1×ATX assay buffer was made up with a final concentration of 1 mg/mL fatty acid free-BSA using 2×ATX assay buffer, 10 mg/ml fatty acid free-BSA and ddH2O.
ATX protein was diluted with 1×ATX assay buffer to a concentration of 1.32 μg/mL (1.32×). 38 μL was added per well to the assay plate. The final concentration of ATX in the reaction as 1.0 μg/mL.
2 μL per well of compounds was transferred to provide the desired concentration. The plate was centrifuged, then incubated at room temperature for 30 minutes on the shaker.
FS-3 was diluted with 1×ATX assay buffer to a concentration of FS-3 of 10 μM (5×). Then, 10 μL was added per well to the assay plate. The final concentration of FS-3 in the reaction was 2 μM. The plate was centrifuged. The plate was kept shaking at room temperature for 2 hours. Because FS-3 substrate is light sensitive, plates were kept covered and protected from light.
Fluorescence was measured using SpectraMax M5 (excitation at 485 nm/emission at 538 nm, top read).

`C[C@H]1CC[C@@H](Oc2ccc3cc(CN4CCCCC(C(=O)O)C4)ccc3c2C(F)(F)F)CC1` (relative stereo) [Example 48, 1-((5-trifluoromethyl-6-(cis-4-methylcyclohexyloxy)naphthalene-2-yl)methyl)-azepane-3-carboxylic acid] and `CC1CN(Cc2ccc3c(C(F)(F)F)c(O[C@H]4CC[C@@H](C(F)(F)F)CC4)ccc3c2)CCC1C(=O)O` (relative stereo) [Example 74, 1-((5-(trifluoromethyl)-6-((cis-4-(trifluoromethyl)cyclohexyl)oxy)-naphthalen-2-yl)methyl)-3-methylpiperidine-4-carboxylic acid] cannot be ordered by IC50: no more than 500 nM for the first, no more than 500 nM for the second.

`CCC(c1ccc2c(C(F)F)c(O[C@H]3CC[C@@H](C)CC3)ccc2c1)N1CCC[C@H](CC(=O)O)C1` (stereo partly drawn) [Example 57, 2-((3R)-1-(1-(6-((cis-4-Methylcyclohexyl)oxy)-5-(difluoromethyl)naphthalen-2-yl)propyl)piperidin-3-yl)acetic acid] and `C[C@H]1CC[C@@H](Oc2ccc3cc(CN4CCC[C@H](CC(=O)O)C4)ccc3c2C(F)F)CC1` [Example 56, 2-((3R)-1-((6-((cis-4-Methylcyclohexyl)oxy)-5-(difluoromethyl)naphthalen-2-yl)methyl)piperidin-3-yl)acetic acid] cannot be ordered by IC50: no more than 100 nM for the first, no more than 100 nM for the second.

`CCC(c1ccc2c(C(F)(F)F)c(O[C@H]3CC[C@@H](C)CC3)ccc2c1)N1CCC(C(=O)O)CC1` (relative stereo) [Example 50, 1-(1-(6-((cis-4-Methylcyclohexyl)oxy)-5-(trifluoromethyl)naphthalen-2-yl)propyl)piperidine-4-carboxylic acid] and `C[C@H]1CC[C@@H](Oc2ccc3cc(C(C(=O)O)N4CCC(C(=O)O)CC4)ccc3c2C(F)(F)F)CC1` (stereo partly drawn) [Example 11, 1-(Carboxy(6-((cis-4-methylcyclohexyl)oxy)-5-(trifluoromethyl)naphthalen-2-yl)methyl)piperidine-4-carboxylic acid] cannot be ordered by IC50: no more than 500 nM for the first, no more than 500 nM for the second.

`O=C(NCCCP(=O)(O)O)c1ccc2c(C(F)(F)F)c(O[C@H]3CC[C@@H](C(F)(F)F)CC3)ccc2c1` [Example 19, (3-(5-(trifluoromethyl)-6-((cis-4-(trifluoromethyl)cyclohexyl)oxy)-2-naphthamido)propyl)phosphonic acid] and `O=C(O)CC1CN(Cc2ccc3c(C(F)(F)F)c(O[C@H]4CC[C@@H](C(F)(F)F)CC4)ccc3c2)C1` [Example 62, 2-(1-((5-(trifluoromethyl)-6-(4-cis-(trifluoromethyl)cyclohexyloxy)naphthalene-2-yl)methyl)azetidine-3-yl)acetic acid] cannot be ordered by IC50: no more than 100 nM for the first, no more than 250 nM for the second.

`CC(NC1CC(C(=O)O)C1(C)C)c1ccc2c(C(F)(F)F)c(O[C@H]3CC[C@@H](C(F)(F)F)CC3)ccc2c1` (stereo partly drawn) [Example 37, 2,2-dimethyl-3-(1-(5-(trifluoromethyl)-6-((cis)-4-(trifluoromethyl)cyclohexyloxy)naphthalen-2-yl)ethylamino)cyclobutanecarboxylic acid] and `CC(C)C(NC1CC(C(=O)O)C1(C)C)c1ccc2c(C(F)(F)F)c(O[C@H]3CC[C@@H](C(F)(F)F)CC3)ccc2c1` (relative stereo) [Example 39, 2,2-dimethyl-3-(2-methyl-1-(5-(trifluoromethyl)-6-((cis)-4-(trifluoromethyl)cyclohexyloxy)naphthalen-2-yl)propylamino)cyclobutanecarboxylic acid] cannot be ordered by IC50: no more than 100 nM for the first, no more than 250 nM for the second.

`CC1(C)C(NCc2ccc3c(C(F)(F)F)c(OC4CCC(C(F)(F)F)CC4)ccc3n2)CC1C(=O)O` (stereo not drawn) [Example 87, 2,2-dimethyl-3-((((5-(trifluoromethyl)-6-(cis-4-(trifluoromethyl)cyclo-hexyl)oxy)quinolin-2-yl)methyl)amino)cyclobutanecarboxylic acid] and `CN(Cc1ccc2c(C(F)(F)F)c(O[C@H]3CC[C@@H](C(F)(F)F)CC3)ccc2c1)[C@H]1CC[C@@H](C(=O)O)CC1` [Example 79, N-methyl-cis-4-(((5-(trifluoromethyl)-6-(cis-4-(trifluoromethyl)cyclohexyloxy)naphthalene-2-yl)methyl)amino)cyclohexane-1-carboxylic acid] cannot be ordered by IC50: no more than 500 nM for the first, no more than 500 nM for the second.

`O=C(O)C[C@H]1CN(Cc2ccc3c(C(F)(F)F)c(O[C@H]4CC[C@@H](C(F)(F)F)CC4)ccc3c2)CCO1` [Example 82, 2-((S)-4-((2-(cis-4-(trifluoromethyl)cyclohexyloxy)-1-(trifluoromethyl)naphthalen-6-yl)methyl)morpholin-2-yl)acetic acid] and `O=C(O)CC1CN(Cc2ccc3c(C(F)F)c(O[C@H]4CC[C@@H](C(F)(F)F)CC4)ccc3c2)CCO1` (relative stereo) [Example 32, 2-(4-((5-(difluoromethyl)-6-((cis)-4-(trifluoromethyl)cyclohexyloxy)naphthalen-2-yl)methyl)morpholin-2-yl)acetic acid] cannot be ordered by IC50: no more than 250 nM for the first, no more than 500 nM for the second.

`CC(c1ccc2c(C(F)(F)F)c(O[C@H]3CC[C@@H](C)CC3)ccc2c1)N1CCC[C@H](CC(=O)O)C1` (stereo partly drawn) [Example 51, 2-((3R)-1-(1-(6-((cis-4-Methylcyclohexyl)oxy)-5-(trifluoromethyl)naphthalen-2-yl)ethyl)piperidin-3-yl)acetic acid] and `CCC(c1ccc2c(C(F)(F)F)c(O[C@H]3CC[C@@H](C(F)(F)F)CC3)ccc2c1)N1CCC[C@@H](CC(=O)O)C1` (stereo partly drawn) [Example 89, 2-((S)-1-(1-(2-(cis-4-(trifluoromethyl)cyclohexyloxy)-1-(trifluoromethyl)naphthalen-6-yl)propyl)piperidin-3-yl)acetic acid] cannot be ordered by IC50: no more than 100 nM for the first, no more than 100 nM for the second.

`O=C(O)[C@H]1CC[C@H](CNCc2ccc3c(C(F)F)c(O[C@H]4CC[C@@H](C(F)(F)F)CC4)ccc3c2)CC1` [Example 34, (trans)-4-(((5-(difluoromethyl)-6-((cis)-4-(trifluoromethyl)cyclohexyloxy)naphthalen-2-yl)methylamino)methyl)cyclohexanecarboxylic acid] and `O=C(O)CCC1CCN(Cc2ccc3c(C(F)(F)F)c(O[C@H]4CC[C@@H](C(F)(F)F)CC4)ccc3c2)CC1` [Example 83, 3-(1-((2-(cis-4-(trifluoromethyl)cyclohexyloxy)-1-(trifluoromethyl)naphthalen-6-yl)methyl)piperidine-4-yl)propionic acid] cannot be ordered by IC50: no more than 250 nM for the first, no more than 500 nM for the second.

`FC(F)(F)c1c(O[C@H]2CC[C@@H](C(F)(F)F)CC2)ccc2cc(CN3CCC(c4nn[nH]n4)CC3)ccc12` [Example 5, 4-(2H-tetrazol-5-yl)-1-((5-(trifluoromethyl)-6-((cis-4-(trifluoromethyl)cyclohexyl)oxy)naphthalen-2-yl)methyl)piperidine] and `O=C(O)c1ccc(CNCc2ccc3c(C(F)(F)F)c(O[C@H]4CC[C@@H](C(F)(F)F)CC4)ccc3c2)cn1` [Example 75, 5-((((5-(trifluoromethyl)-6-((cis-4-(trifluoromethyl)cyclohexyl)oxy)-naphthalen-2-yl)methyl)amino)methyl)pyridine-2-carboxylic acid] cannot be ordered by IC50: no more than 250 nM for the first, no more than 250 nM for the second.

For `C[C@H]1CC[C@@H](Oc2ccc3cc(CN4CC(CC(=O)O)C4)ccc3c2C(F)F)CC1` [Example 97, 1-((5-(Difluoromethyl)-6-((cis-4-methylcyclohexyl)oxy)naphthalen-2-yl)methyl)azetidine-3-acetic acid], the IC50 was no more than 100 nM.
